Assay results as given in PubChem BioAssay (NCI).
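Protocol summary: plate cells (96-well), add compound at 5 concentrations, incubate 48 h, interpolate endpoints linearly. TGI: concentration producing complete growth inhibition.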 Where a SMILES comes first, the peptide text is derived from it.

Key:
Assay in all cases: DTP human tumour cell line panel, 48 h
786-0 renal = test system: 786-0 renal
HOP-92 NSCLC = test system: HOP-92 NSCLC
MCF7 breast = test system: MCF7 breast
SF-295 CNS = test system: SF-295 CNS
ACHN renal = test system: ACHN renal
NCI-H226 lung = test system: NCI-H226 lung
HCT-15 colon = test system: HCT-15 colon
SK-OV-3 ovarian = test system: SK-OV-3 ovarian
U251 CNS = test system: U251 CNS
IGROV1 ovarian = test system: IGROV1 ovarian

Compound	TGI (786-0 renal) [µM]	TGI (HOP-92 NSCLC) [µM]	TGI (MCF7 breast) [µM]	TGI (SF-295 CNS) [µM]	TGI (ACHN renal) [µM]	TGI (NCI-H226 lung) [µM]	TGI (HCT-15 colon) [µM]	TGI (SK-OV-3 ovarian) [µM]	TGI (U251 CNS) [µM]	TGI (IGROV1 ovarian) [µM]
COc1cccc(C(=O)N[C@@H]2[C@H](O)[C@@H](CO)O[C@H]2n2cnc3c(N)ncnc32)c1	> 100	> 100	> 100	> 100	> 100	> 100	> 100	> 100	> 100	> 100
CC(=O)/C(=C(/Br)I)c1ccccc1	28	23.8	19.1	29	27.6	27.2	17.7	> 64.5	26.5	49.3
COC(=O)C1(C)OC(C)=NC1(C(=O)OC)C(=O)OC (stereo not given)	> 100	> 100	> 100	> 100	> 100	> 100	> 100	> 100	> 100	> 100
C#CC(O)Cc1ccc(OC)c2occc12 (stereo not given)	> 100	> 100	> 100	> 100	> 100	> 100	> 100	> 100	> 100	> 100
CCc1n[nH]c(=S)n1/N=C\c1ccc(-c2ccccc2[N+](=O)[O-])o1	> 100	> 100	> 100	> 100	> 100	54.1	> 100	> 100	> 100	> 100
CN1CCCC(C(=O)OCC(=O)C2(O)CCC3C4CCC5=CC(=O)CCC5(C)C4C(O)CC32C)C1 (stereo not given)	14.3	> 100	> 65.6	46.6	34.8	33.9	44.1	45.6	16	> 60.1
CC/C=C/C(/C=C/C[C@]1(CC)C[C@H](CC)[C@H](CC(=O)O)OO1)CC (stereo not given in full)	3.32	4.72	6.62	5.02	3.61	57.9	8.97	19.2	3.36	0.899
CC(=O)NC1C(OCc2ccccc2)OC(CO)C(O)C1OCC(=O)N1CCCC1C(=O)NC(CCC(=O)NCCCCCNc1c2ccccc2nc2cccc([N+](=O)[O-])c12)C(N)=O (stereo not given)	0.924	0.101	0.502	0.724	0.0813	0.514	0.0906	0.538	0.206	0.86
CCCCCCC(=O)OC[n+]1cccc(-c2c(COC(=O)NC(C)C)c(COC(=O)NC(C)C)c3n2CCC3)c1	> 69.8	66.4	> 100	> 100	89.1	> 100	> 100	> 100	> 100	> 86.6
NCCC1([N+](=O)[O-])CCNCC1	> 100	> 100	> 100	> 100	> 100	> 100	> 100	> 100	> 100	> 100
O=C1C(NS(=O)(=O)c2ccccc2)=C(N(Cc2ccccc2)Cc2ccccc2)C(=O)c2ccccc21	> 100	> 100	> 100	> 100	> 100	> 100	> 100	> 100	> 100	> 100
O=[N+]([O-])c1ccc2[nH]c(O)c(N=NC(=S)Nc3ccccc3)c2c1	17.7	21.7	24.6	16.6	19.5	65.4	17	28.2	16.6	19.6
S=C(Nc1cccc(C2(N3CCCCC3)CCCCC2)c1)Nc1cccc(C2(N3CCCCC3)CCCCC2)c1	30.5	43.9	64.1	> 100	54	78.5	> 100	> 100	50.4	> 100
CC(=O)NC(CO)C(=O)NC(Cc1ccc(O)cc1)C(=O)NCC(N)=O (stereo not drawn) (Ac-Ser-Tyr-Gly-NH2; configuration not given here)	> 100	> 100	> 100	> 100	> 100	> 100	> 100	> 100	> 100	> 100
OC1(c2ccc3ccccc3c2)c2c(c3ccccc3c3ccccc23)C2=NCCN21 (stereo not given)	25.3	70.3	15.8	12.2	> 100	> 100	> 39.4	42.8	17.7	24
N#Cc1c(N2CCOCC2)ncn(-c2ccc(Cl)cc2)c1=O	> 100	> 100	> 100	> 100	> 100	> 100	> 100	> 100	> 100	> 100
Cc1cc(C#N)c(Nc2ccccc2[N+](=O)[O-])s1	> 100	> 100	> 100	> 100	> 100	> 100	> 100	> 100	57.6	> 100
